Measurements as given in article PMC6471197, “Biological Activity and In Silico Study of 3-Modified Derivatives of Betulin and Betulinic Aldehyde” (International Journal of Molecular Sciences, 2019).
≈ marks a conversion by molar mass, not a printed value.

Columns and labels:
[1] = tested on: MV-4-11 (biphenotypic B myelomonocytic leukaemia) cell line; test: MTT antiproliferative assay on MV-4-11 cells; format: cell-based, human; settings: for IC50: Homo sapiens, MV4-11
Description: (§1) The applied human cell lines such as MV-4-11 (biphenotypic B myelomonocytic leukaemia), A549 (lung adenocarcinoma), Du-145 (prostate), Hs294T (melanoma), MCF-7 (breast adenocarcinoma) and MCF-10A (normal mammary gland) were obtained from the American Type Culture Collection (ATCC, Rockville, MD, USA). The all cell lines are maintained at the Cell Culture Collection of the Institute of Immunology and Experimental Therapy (Wrocław, Poland). The cells were plated in 96-well plates (Sarstedt, Newton, MA, USA) at a density of 1 × 10^4 cells per well in 100 µL of appropriate culture medium overnight. Biphenotypic B myelomonocytic leukaemia (MV-4-11) cells were cultured in RPMI 1640 medium (Gibco, Scotland, UK) with GlutaMAX (Thermo-Fisher Scientific, Warsaw, Poland) adjusted to contain 1.0 mM sodium pyruvate (Sigma-Aldrich, Chemie GmbH, Steinheim, Germany). Human lung adenocarcinoma (A549) cells were cultured in mixture RPMI 1640 and Opti-MEM medium (Gibco, Scotland, UK) supplemented with GlutaMAX (ThermoFisher Scientific, Warsaw, Poland) and 2mM L-glutamine adjusted to contain 1.0 mM sodium pyruvate. Human prostate (Du-145) and human breast adenocarcinoma (MCF-7) cells were cultured in Eagle medium (IIET, Wrocław, Poland), supplemented with 2 mM L-glutamine adjusted to contain 1.0 mM sodium pyruvate. Human melanoma (Hs294T) cells were cultured in Dulbecco medium (Gibco, Scotland, UK) supplemented with 2 mM L-glutamine. The normal human mammary gland cells (MCF-10A) were cultured in Ham’s F-12 medium containing 2 mM L-glutamine, 5% horse serum, epidermal growth factor EGF (100 μL/100 mL of medium), hydrocortisone (1 mL/ 100 mL of medium), insulin (100 μL/100 mL of medium) and cholera toxin (0.1 mL/100 mL of medium). All applied culture media except MCF-10A were supplemented with 10% of FBS (MV-4-11 cultured with FBS derived from Sigma-Aldrich, Chemie GmbH, Steinheim, Germany, the other cell lines FBS HyClone Thermo-Fisher Scientific, Warsaw, Poland) and streptomycin (100 µg/mL), penicillin (100 U/mL) (both from Polfa, Tarchomin, Poland). The tested cell lines were grown at 37 °C in humid atmosphere saturated with 5% CO2. In our studies were used two assays for determination the cytotoxic activity in vitro of triterpene derivatives. By dissolving 1 mg of each tested compound in 100 µL of DMSO, stock solutions at a 10 mg/mL were obtained. Next, the stock solutions were diluted in appropriate culture medium to reach the required concentrations of compounds ranging from 0.1 to 100 µg/mL. The MTT assay was used for the cytotoxicity screening against biphenotypic B myelomonocytic leukaemia (MV-4-11). The SRB assay was performed for adherent cells such as A549, Du-145, Hs294T, MCF-7 and MCF-10A. Both assays were carried as described by Wietrzyk et al.. The triterpenes in given concentration were examined in triplicates in each experiment, which was repeated 3 times. The results of anticancer activity in vitro were presented as an IC50 in µM. Cisplatin and betulin 1 were used as reference substances.

[2] = tested on: A549 (lung adenocarcinoma); test: SRB antiproliferative assay on A549 cells; format: cell-based, human; settings: Homo sapiens, A549
Description: as §1

Du-145 (prostate) = test: SRB antiproliferative assay on Du-145 cells; format: cell-based, human; settings: Homo sapiens, DU-145; SRB assay
Description: as §1

Hs294T (melanoma) = test: SRB antiproliferative assay on Hs294T cells; format: cell-based, human; settings: Homo sapiens, Hs 294T; SRB assay
Description: as §1

[3] = tested on: MCF-7 (breast adenocarcinoma); test: SRB antiproliferative assay on MCF-7 cells; format: cell-based, human; settings: Homo sapiens, MCF7; SRB assay
Description: as §1

[4] = tested on: MCF-10A (normal mammary gland); test: SRB antiproliferative assay on MCF-10A cells; format: cell-based, human; settings: Neg = negative in the concentration used
Description: as §1

lung A549 cell line = tested on: lung A549 cell line; design: method as in PMID 20460723; settings: cited from earlier work
[5] = design: method as in PMID 17851638; settings: cited from earlier work
[6] = tested on: PC-3, Jurkat, HeLa, HepG2 and HT-29; design: method as in PMID 20494586; settings: range over PC-3, Jurkat, HepG2, HT-29, read-out: IC50 in the tested cancer cell lines; cited from earlier work
[7] = tested on: MCF-7/ADR cells (multidrug-resistant breast cancer); design: method as in PMID 25817774; settings: read-out: IC50 towards MCF-7/ADR cells; cited from earlier work
[8] = MTT assay, Neg = negative in the concentration used

## C#CCOC(=O)O[C@H]1CC[C@@]2(C)C(CC[C@]3(C)C2CCC2C4C(C(=C)C)CC[C@]4(CO)CC[C@]23C)C1(C)C (some centres unmarked) [Compound 13, 3-Propargyloxycarbonylbetulin]
[1]; [8]
  IC50: 7.4 ± 1.7 µM
[2]
  IC50: 14.9 ± 2.5 µM
Du-145 (prostate)
  IC50: 95.1 ± 16.8 µM
Hs294T (melanoma)
  IC50: 82.7 ± 8.4 µM
[3]
  IC50: 28.9 ± 4.6 µM
[4]
  Antiproliferative Activity IC50 MCF-10A: Neg

## C#CCCOC(=O)O[C@H]1CC[C@@]2(C)C(CC[C@]3(C)C2CCC2C4C(C(=C)C)CC[C@]4(CO)CC[C@]23C)C1(C)C (some centres unmarked) [Compound 14, 3-(3-Butynyloxycarbonyl)betulin]
[1]; [8]
  IC50: 8.9 ± 0.9 µM
[2]
  IC50: 33.8 ± 2.8 µM
Du-145 (prostate)
  IC50: 126 ± 13.2 µM
Hs294T (melanoma)
  IC50: 164 ± 15.8 µM
[3]
  IC50: 39.2 ± 6.9 µM
[4]
  Antiproliferative Activity IC50 MCF-10A: Neg

## C=C(C)C1CC[C@]2(C=O)CC[C@]3(C)C(CCC4[C@@]5(C)CC[C@H](OC(=O)CC)C(C)(C)C5CC[C@]43C)C12 (some centres unmarked) [Compound 15, 3-Propanoylbetulinic aldehyde]
[1]; [8]
  IC50: 71.8 ± 22.9 µM

## C=CC(=O)O[C@H]1CC[C@@]2(C)C(CC[C@]3(C)C2CCC2C4C(C(=C)C)CC[C@]4(C=O)CC[C@]23C)C1(C)C (some centres unmarked) [Compound 16, 3-(2-Propenoyl)betulinic aldehyde]
[1]; [8]
  IC50: 5.8 ± 1.8 µM
[1]; MV-4-11 cells
  fold more potent than 3-acetylbetulinic aldehyde 3 against MV-4-11: 6 fold
[2]
  IC50: 15.1 ± 5 µM
Du-145 (prostate)
  IC50: 67.1 ± 4.6 µM
Hs294T (melanoma)
  IC50: 74.4 ± 7.3 µM
[3]
  IC50: 60.4 ± 4.4 µM
[4]; Homo sapiens, MCF-10A
  IC50: 113 ± 11.7 µM

## C=C(C)C1CC[C@]2(C=O)CC[C@]3(C)C(CCC4[C@@]5(C)CC[C@H](OC(=O)C#CC6CC6)C(C)(C)C5CC[C@]43C)C12 (some centres unmarked) [Compound 17, 3-(3-Cyclopropyl-2-propynoyl)betulinic aldehyde]
[1]; [8]
  IC50: 86.7 ± 42.8 µM

## C=C(C)C1CC[C@]2(C=O)CC[C@]3(C)C(CCC4[C@@]5(C)CC[C@H](OC(=O)C#Cc6ccccc6)C(C)(C)C5CC[C@]43C)C12 (some centres unmarked) [Compound 18, 3-Phenylpropynoylbetulinic aldehyde]
[1]; [8]
  MV-4-11 IC50: Neg

## C=C(C)C1CC[C@]2(C=O)CC[C@]3(C)C(CCC4[C@@]5(C)CC[C@H](OC(=O)C#CC)C(C)(C)C5CC[C@]43C)C12 (some centres unmarked) [Compound 19, 3-(2-Butynoyl)betulinic aldehyde]
[1]; [8]
  IC50: 35.9 ± 4.9 µM

## C=C(C)C1CC[C@]2(C=O)CC[C@]3(C)C(CCC4[C@@]5(C)CC[C@H](OC(=O)OCC)C(C)(C)C5CC[C@]43C)C12 (some centres unmarked) [Compound 20, 3-Ethoxycarbonylbetulinic aldehyde]
[1]; [8]
  IC50: 25.1 ± 7.2 µM

## C=C(C)C1CC[C@]2(C=O)CC[C@]3(C)C(CCC4[C@@]5(C)CC[C@H](OC(=O)OCCC)C(C)(C)C5CC[C@]43C)C12 (some centres unmarked) [Compound 21, 3-Propoxycarbonylbetulinic aldehyde]
[1]; [8]
  IC50: 80.2 ± 14.4 µM

## C=CCOC(=O)O[C@H]1CC[C@@]2(C)C(CC[C@]3(C)C2CCC2C4C(C(=C)C)CC[C@]4(C=O)CC[C@]23C)C1(C)C (some centres unmarked) [Compound 22, 3-Allyloxycarbonylbetulinic aldehyde]
[1]; [8]
  IC50: 38.3 ± 4.6 µM

## C#CCOC(=O)O[C@H]1CC[C@@]2(C)C(CC[C@]3(C)C2CCC2C4C(C(=C)C)CC[C@]4(C=O)CC[C@]23C)C1(C)C (some centres unmarked) [Compound 23, 3-Propargyloxycarbonylbetulinic aldehyde]
[1]; [8]
  IC50: 30 ± 6.1 µM

## C#CCCOC(=O)O[C@H]1CC[C@@]2(C)C(CC[C@]3(C)C2CCC2C4C(C(=C)C)CC[C@]4(C=O)CC[C@]23C)C1(C)C (some centres unmarked) [Compound 24, 3-(3-Butynyloxycarbonyl)betulinic aldehyde]
[1]; [8]
  IC50: 28.3 ± 7.4 µM

## C=C(C)[C@@H]1CC[C@]2(C(=O)O)CC[C@]3(C)[C@H](CC[C@@H]4[C@@]5(C)CC[C@H](O)C(C)(C)[C@@H]5CC[C@]43C)[C@@H]12 [betulinic acid]
Lung A549 cell line
  IC50 against lung A549 cell line: 8.4 µg/mL (≈ 18.4 µM)
[5]
  water solubility: < 1 µM
[6]
  IC50: 12.8 to 36.4 µM
[7]
  IC50: 38.5 µM
